In patent publication US6835563B1, “Compositions and methods for increasing cholesterol efflux and raising HDL ATP binding cassette transporter protein ABC1” (CV Therapeutics, priority 1999, dated 2004):

What was measured:
ABC1 promoter = experiment: pAPR1 luciferase reporter under control of the ABC1 promoter in RAW 264.7 cells; format: cell-based, mouse; details: pAPR1-transfected RAW 264.7; 10 μM each ligand (20 μM total for both), 24 hours
From the text: Construction of Reporter Plasmids: Plasmid pGL3-Basic (Promega, Madison, Wis.; Cat. #E1751) was used as a control plasmid containing the promoterless luciferase gene. The reporter construct containing the ABC1 promoter and luciferase gene was made by cloning a genomic fragment from the 5′ flanking region of the ABC1 gene (hAPRI 5′ promoter, corresponding to nucleotides 1080-1643 of SEQ ID NO: 3) into the Sacd site of the GL3-Basic plasmid to generate plasmid GL-6a. Next, plasmid GL-6a was digested with SneI and Acc651. […]
Luciferase Assay: Following transfection, the cells in each well were lysed in 70 μl of 1× cell lysis reagent (Promega, Madison, Wis., Cat. #E3971), subjected to one freeze-thaw cycle, and the lysate cleared by centrifugation for 5 minutes at 12,000 g. […] The luciferase activity of each lysate was measured as light units using a luminometer. Additionally, the β-galactosidase activity of each lysate was measured using the chemiluminescent assay reagents supplied in the Galacto-light kit according to the manufacturer's instructions (Tropix Inc., Bedford, Mass.: Cat. #BL100G). The normalized luciferase activity for each lysate was determined by dividing the luciferase activity value by the determined 0-galactosidase value and reported as relative light units. […]

ABC1 5' flanking region = experiment: Luciferase reporter constructs with portions of the ABC1 5' flanking region in RAW 264.7 cells; format: cell-based, mouse; details: wild-type sequence nt 1080-1643 of SEQ ID NO: 3
Method: (§1) Luciferase Assay: Following transfection, the cells in each well were lysed in 70 μl of 1× cell lysis reagent (Promega, Madison, Wis., Cat. #E3971), subjected to one freeze-thaw cycle, and the lysate cleared by centrifugation for 5 minutes at 12,000 g. After centrifugation, 100 μl of luciferase assay reagent (Promega, Madison, Wis.; Cat. #E1501) was added to 10 μl of lysate. The luciferase activity of each lysate was measured as light units using a luminometer. Additionally, the β-galactosidase activity of each lysate was measured using the chemiluminescent assay reagents supplied in the Galacto-light kit according to the manufacturer's instructions (Tropix Inc., Bedford, Mass.: Cat. #BL100G). The normalized luciferase activity for each lysate was determined by dividing the luciferase activity value by the determined 0-galactosidase value and reported as relative light units.
Construction of Reporter Constructs: Reporter construct pAPR1 and control reporter construct pGL3-Basic were obtained as described in Example 15. […]
Transfection of Reporter Constructs: The RAW 264.7 cells were maintained in culture and transfected with either pGL3-Basic (1 μg), pAPR1 (1 μg), or one of the other reporter constructs according to the method described in Example 15. […] The luciferase activity was measured and reported as relative light units as described in Example 15.

ABC1 mRNA = ABC1 mRNA by RT-PCR in RAW 264.7 cells; format: cell-based, mouse; details: single ligand 10 μM, 24 hours, serum-free DMEM/BSA
Method: RT-PCR: Quantitative PCR was carried out using the GeneAmp 5700 Sequence. Detection System (Perkin-Elmer Applied Biosystems, Foster City, Calif.). Briefly, 500 ng of DNase-treated mRNA was reverse transcribed using random hexamer primers at 2.5 μM. Approximately 5% of this reaction was amplified by PCR using the SYBR green core kit (PE. Applied Biosystems, Foster City, Calif.; Cat. #4304886) and human ABC1 primers LF: 5′-[…] (SEQ ID NO: 11) and LR: 5′-[…] (SEQ ID NO: 12) to yield an 82 bp fragment corresponding to nucleotides 7018-7099 of human ABC1. PCR cycle conditions were as follows: 10 minutes 95° C.; followed by 40 cycles of 95° C., 15 seconds; and 60° C., 60 seconds. The mRNA in each sample was quantitated by detecting the increase in fluorescence caused by SYBR green binding to the double-stranded amplification product generated during each PCR cycle. All samples were run in triplicate and normalized against 0-actin mRNA, amplified in parallel reactions with primers actinF: 5′-[…] (SEQ ID NO: 54) and actinB: 5′-[…] […]
Mouse RAW 264.7 cells were grown to subconfluence in DMEM/10% FBS and then treated for 24 hours in serum-free DMEM/BSA with either 9-cis retinoic acid (10 μM), 20-hydroxycholesterol (10 μM), or both ligands together (20 μM total). […] RNA was extracted, treated with DNase, and ABC1 mRNA measured by RT-PCR using PE Biosystems SYBR Green Technology as described in Example 9.

RAW 264.7 cells = experiment: Apo A-I-mediated cholesterol efflux from cholesterol-loaded RAW 264.7 macrophage cells; details: for increase in apoAI-induced cholesterol efflux: 9 cis-retinoic acid 30 ng/ml, 22(R)hydroxycholesterol 5 μg/ml, fenfibrate 3 μg/ml, PGI2 25 nm, PGE1 25 nM
Method: Assay to Measure Lipid Efflux: Apo AI-mediated efflux of cholesterol and, phospholipid was assayed according to the method described in. […] RAW 264.7 cells were cholesterol-loaded through the scavenger receptor by 24-hour incubation with acetylated LDL as described in Smith et al., J. Biol. Chem., 271:30647-30655 (1996). Briefly, RAW 264.7 cells in 24-well dishes were cholesterol-loaded and labeled overnight in 0.5 ml of DMEM supplemented with 50 μl/ml 1M glucose, 10 μl/ml 200 mM glutamine and 2% BSA and with 50 μg/ml acetylated low density lipoprotein (AcLDL) and [^3H]-cholesterol which had been pre-incubated for 30 minutes at 37° C. with AcLDL to yield a final concentration of 0.33 μCi/ml [^3H]-cholesterol. Cells were subsequently washed five times with PBS containing 1% BSA and incubated overnight (16-18 hours) in DMEM/BSA to allow for equilibrium of cholesterol pools. After equilibrium of cholesterol pools, cells were rinsed four times with PBS/BSA and incubated for one hour at 37° C. with DMEM/BSA before the efflux incubations. Efflux medium (DMEM/BSA) containing either albumin alone (control), albumin plus HDL (40 μg protein/ml), or albumin plus apo A-I (10 μg/ml, Biodesign International, Kennebunk, Me.) was added and the cells were incubated for 4, 24, or 48 hours. […] The radioactivity found in the culture medium was measured by scintillation counting after a 15-minute centrifugation at 12,000 g. The radioactivity in the cells was measured by scintillation counting after solubilization in 0.5 ml of 0.2M NaOH (Smith et al., J. Biol. Chem., 271:30647-30655 (1996)) or extraction in hexane:isopropanol (3:2 v/v) as described in Francis, et al., J. Clin. Invest., 96, 78-87 (1995). […] The efflux of cholesterol or phospholipid was expressed as the percentage of tritiated lipid counts in the medium over the total tritiated lipid counts recovered from the cells and medium (cpm medium/cpm (medium+lysate)×100).
Briefly, RAW 264.7 cells suspended at a density of 1.25×10^5 cells/ml were grown in DMEM/10% FBS supplemented with pyruvate. After 24 hours, the medium was removed and replaced with DMEM/BSA plus radiolabeled cholesterol (1 μCi/ml ^3[H]-cholesterol) and 50 μg/ml of acetylated LDL for 24 hours. The cells were then maintained for 24 hours in equilibrium medium consisting of DMEM/BSA plus either apo A-I alone (20 μg/ml), apo A-I and 8-bromo 3′, 5′ cAMP (1 mM) or apo A-I and rolipram (50 μM).

[1] = system: ABC1 5' flanking region with mutated sterol response element; experiment: Luciferase reporter construct 1080-1643 with mutated sterol response element in RAW 264.7 cells; format: cell-based, mouse; details: mutated sequence nt 1080-1643, sterol response element mutated
Method: as §1
Transfection of Reporter Constructs: The RAW 264.7 cells were maintained in culture and transfected with either pGL3-Basic (1 μg), pAPR1 (1 μg), or one of the other reporter constructs according to the method described in Example 15. […] The luciferase activity was measured and reported as relative light units as described in Example 15. […]

normal fibroblasts = experiment: Apo A-I-mediated lipid efflux from normal fibroblasts with ABC1 transport inhibitors; format: cell-based, human; details: 0.2 or 0.4 mM, 6 hours, 5 μg/ml apo A-I
Method: To test whether inhibition of ABC1 could affect the process of apolipoprotein-mediated cholesterol efflux, two compounds reported to be ABC1 inhibitors were tested in assays which monitor apolipoprotein mediated cholesterol efflux. […] The apolipoprotein-mediated cholesterol efflux assays were performed as described in Example 1 with the noted changes.
Cholesterol-loaded and [^3H]cholesterol-labeled normal fibroblasts (n=3) were incubated for 6 hours with or without 5 μg/ml apo A-I and either 0, 0.2 mM, or 0.4 mM DIDS. In addition, cholesterol-loaded and [^3H]cholesterol-labeled normal fibroblasts (n=3) were incubated for 6 hours with or without 5 μg/ml apo A-I and either 0, 0.2 mM, or 0.4 mM BSP. […] The results are shown in FIG. 5 as the mean±SD (n=3) of efflux in the presence of apo A-I after subtraction of values for apo A-I-free medium. […] The results of these tests mimic the efflux defect in fibroblasts derived from patients with TD, described in Example 1.

ABC1 = details: dose-dependent; Becq et al. 1997, Hamon et al. 1997; cited from earlier work
normal skin fibroblasts = experiment: Apo A-I-mediated cholesterol efflux after antisense inhibition of ABC1 mRNA; format: cell-based, human; details: 30 μM oligonucleotide, apo A-I-mediated efflux after 12 hours
Method: Normal skin fibroblasts were labeled with [^3H]cholesterol as described in Example 1.
The cells were then loaded with oligonucleotide by scraping in the presence of either 30 μM control. Morpholino oligonucleotide (5′-[…]-3′ corresponding to the antisense complement of a β-globin thalassemic mRNA; SEQ ID NO: 52) or […] ABC1 antisense. Morpholino oligonucleotide (5′-[…]-3′; SEQ ID NO: 53) and reseeding on new dishes. Control cells were mock-loaded after [^3H]cholesterol-labeling by scraping and reseeding in the absence of oligonucleotide. […] The results are shown in FIG. 6 as the mean±SEM of three separate experiments, normalized to the value for apo A-I-specific efflux in the absence of oligonucleotide in each experiment.

Compound: CC1=C(/C=C/C(C)=C\C=C\C(C)=C\C(=O)O)C(C)(C)CCC1 [9-cis retinoic acid]
- increase in luciferase reporter activity compared with EtOH control (ABC1 promoter): 16 fold
- transcriptional response (luciferase activity) (ABC1 5' flanking region): produced a transcriptional response
- ABC1 mRNA expression (ABC1 mRNA): increase in ABC1 mRNA expression
- cholesterol efflux (RAW 264.7 cells; 0.3 ng/ml 9-cis-RA with apo A-I): 1522 c.p.m.
- cholesterol efflux (RAW 264.7 cells; 3.0 ng/ml 9-cis-RA with apo A-I): 3568 c.p.m.
- cholesterol efflux (RAW 264.7 cells; 30 ng/ml 9-cis-RA with apo A-I): 8597 c.p.m.
- increase in apoAI-induced cholesterol efflux (RAW 264.7 cells): ~3 fold

Compound: CC(C)CCC[C@](C)(O)[C@H]1CC[C@H]2[C@@H]3CC=C4C[C@@H](O)CC[C@]4(C)[C@H]3CC[C@@]21C [20(S)-hydroxycholesterol]
- transcriptional response (luciferase activity) [1]: did not produce a transcriptional response
- transcriptional response (luciferase activity) (ABC1 5' flanking region): produced a transcriptional response
- ABC1 mRNA expression (ABC1 mRNA): increase in ABC1 mRNA expression

Compound: CC(C)CC[C@@H](O)[C@@H](C)[C@H]1CC[C@H]2[C@@H]3CC=C4C[C@@H](O)CC[C@]4(C)[C@H]3CC[C@]12C [22(R)-hydroxycholesterol]
- transcriptional response (luciferase activity) [1]: did not produce a transcriptional response

Compound: O=C1OC(c2ccc(O)c(S(=O)(=O)O)c2)(c2ccc(O)c(S(=O)(=O)O)c2)c2c(Br)c(Br)c(Br)c(Br)c21 [BSP, sulphobromophthaleine]
- effect on apo A-I-mediated efflux of tritiated cholesterol (normal fibroblasts): inhibit
- anion transport activities of ABC1 (ABC1): inhibit

Compound: CCCCC[C@H](O)/C=C/[C@H]1[C@H](O)CC(=O)[C@@H]1CCCCCCC(=O)O [PGE1, prostaglandin E1]
- increase in apoAI-induced cholesterol efflux (RAW 264.7 cells): ~3 fold

Compound: CCCCC[C@H](O)/C=C/[C@@H]1[C@H]2C/C(=C/CCCC(=O)O)O[C@H]2C[C@H]1O [PGI2, prostacyclin PGI2]
- increase in apoAI-induced cholesterol efflux (RAW 264.7 cells): ~2 fold

Compound: CC(C)OC(=O)C(C)(C)Oc1ccc(C(=O)c2ccc(Cl)cc2)cc1 [fenfibrate]
- increase in apoAI-induced cholesterol efflux (RAW 264.7 cells): ~2 fold

Compound: ABC1 antisense. Morpholino oligonucleotide: Morpholino 5′-CATGTTGTTCATAGGGTGGGTAGCTC-3′; SEQ ID NO: 53, directed against ABC1 mRNA (all phosphorodiamidate morpholino (PMO))
- reduction in cholesterol efflux compared with control anti-sense oligonucleotide (normal skin fibroblasts): 50%
